Measurements as given in paper PMC7253423, “Quassinoid analogs with enhanced efficacy for treatment of hematologic malignancies target the PI3Kγ isoform” (Communications Biology, 2020).
Where “and” joins values, the source holds several entries; their conditions need not be identical. Equal entries are not always repeated.

Experiments:
Raji cells [1] = experiment: Western blot of PI3K/AKT signaling proteins; assay type: cell-based, human
Protocol: (§1) Western blot analyses were performed as previously described. Briefly, total cell lysates were separated by SDS-PAGE gel and transferred to nitrocellulose membrane. The membranes were blocked with 5% non-fat milk, probed with specific antibodies, and visualized using the Odyssey scanner (LiCor Inc., Lincoln, NE).

MOLM14 xenografts = experiment: In vivo tumorigenic assay using xenografts, tumor size; parameters: species or system NOD/SCID mice; conditions: MOLM14 xenograft
Procedure, shortened: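 Male NOD/SCID mice, six weeks old, received 1 × 10^7 MOLM14 cells subcutaneously in the left flank. Body weight and tumor size tracked before each injection over 2 weeks of treatment; excised tumor volume calculated as (a × b × b)/2.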

HL-60 cells = experiment: Cell cycle assay (PI staining, flow cytometry); assay type: cell-based, human; conditions: HL-60, 100 nM, 48 h
Protocol: (§2) Five million cells were harvested, fixed with 80% ethanol for 2 h or overnight at −20 °C, then washed with PBS and incubated with Propidium iodide (PI) staining buffer (0.5 mg/ml propidium iodide in PBS with 50 μg/ml RNase A) for 30 min at room temperature. The stained cells were resuspended in PBS and analyzed on a FACSCalibur system (Becton Dickinson, San Jose, CA, USA) using FlowJo software (TreeStar, San Carlos, CA, USA).

SU-DHL-4 cells [2] = experiment: Cell cycle assay (PI staining, flow cytometry); assay type: cell-based, human; conditions: SU-DHL-4, 100 nM, 48 h
Protocol: as §2

K562 cells = experiment: Cell cycle assay (PI staining, flow cytometry); assay type: cell-based, human; conditions: K562, 100 nM, 48 h
Protocol: as §2

Raji cells [3] = experiment: Cell cycle assay (PI staining, flow cytometry); assay type: cell-based, human; conditions: 100 nM, 48 h
Protocol: as §2

LCL1 cells = experiment: Cell viability assay (CellTiter-Glo luminescence); assay type: cell-based, human; conditions: 72 h, duplicates
Protocol: After treatment, the cells were incubated with 100 μl buffer for 10 min at room temperature following the instructions of CellTiter-Glo kit (Promega, Madison, WI). Luminescence was detected using a multi-mode reader Cytation 5 (BioTek, Winooski, VT). […] Two independent experiments done in duplicates were performed.

SU-DHL-4 cells [4] = experiment: Cell viability assay (CellTiter-Glo luminescence); assay type: cell-based, human; conditions: SU-DHL-4, 100 nM, 48 h post-treatment
Protocol: (§3) 5000 cells as indicated were cultured in 96-well plate with 100 μl of media. […] After treatment, the cells were incubated with 100 μl buffer for 10 min at room temperature following the instructions of CellTiter-Glo kit (Promega, Madison, WI). Luminescence was detected using a multi-mode reader Cytation 5 (BioTek, Winooski, VT). […] Two independent experiments done in duplicates were performed.

Raji cells [5] = experiment: Cell viability assay (CellTiter-Glo luminescence); assay type: cell-based, human; conditions: for Cell viability (luminescence): 72 h, duplicates
Protocol: as §3

PI3Kγ = molecular target: T1, PI3Kγ (Homo sapiens, UniProt P48736); experiment: Competitive binding pull-down assay in SU-DHL-4 cell lysates, western blot; conditions: SU-DHL-4 lysates, 51048 together with parent Brusatol
T1 construct: endogenous in cells; host or cells: SU-DHL-4 cells (lysate)
T1 sequence (P48736 whole entry): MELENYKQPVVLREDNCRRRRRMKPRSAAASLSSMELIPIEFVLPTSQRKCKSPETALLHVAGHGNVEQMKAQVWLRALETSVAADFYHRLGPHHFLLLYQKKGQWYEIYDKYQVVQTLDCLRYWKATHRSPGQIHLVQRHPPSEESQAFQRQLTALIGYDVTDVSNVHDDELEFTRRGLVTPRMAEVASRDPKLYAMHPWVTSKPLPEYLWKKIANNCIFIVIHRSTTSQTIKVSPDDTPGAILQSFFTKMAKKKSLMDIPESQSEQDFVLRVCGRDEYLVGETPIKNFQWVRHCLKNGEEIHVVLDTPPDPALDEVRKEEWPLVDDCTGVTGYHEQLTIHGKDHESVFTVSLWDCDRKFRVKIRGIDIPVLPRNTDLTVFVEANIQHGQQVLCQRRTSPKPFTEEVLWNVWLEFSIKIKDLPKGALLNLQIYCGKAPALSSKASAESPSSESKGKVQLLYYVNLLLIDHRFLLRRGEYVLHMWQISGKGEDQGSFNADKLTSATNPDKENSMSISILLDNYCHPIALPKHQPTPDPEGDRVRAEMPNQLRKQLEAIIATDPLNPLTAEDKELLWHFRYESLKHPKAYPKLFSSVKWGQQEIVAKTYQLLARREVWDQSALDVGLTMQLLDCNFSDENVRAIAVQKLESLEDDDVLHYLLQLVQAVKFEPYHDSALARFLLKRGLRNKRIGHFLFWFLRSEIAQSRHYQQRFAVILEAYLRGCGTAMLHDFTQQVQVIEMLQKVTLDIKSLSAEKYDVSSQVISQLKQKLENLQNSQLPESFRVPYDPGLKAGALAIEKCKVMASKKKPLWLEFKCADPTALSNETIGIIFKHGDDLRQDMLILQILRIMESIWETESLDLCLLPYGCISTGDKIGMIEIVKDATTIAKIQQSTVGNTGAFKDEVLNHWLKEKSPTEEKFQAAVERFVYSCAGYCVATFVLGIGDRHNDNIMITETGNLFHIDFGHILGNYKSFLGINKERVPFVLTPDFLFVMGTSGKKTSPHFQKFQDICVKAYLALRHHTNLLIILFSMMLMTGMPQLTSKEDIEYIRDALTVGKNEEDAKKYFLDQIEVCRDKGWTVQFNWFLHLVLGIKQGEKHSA
Protocol: Thirty microgram of purified GST-tagged proteins were pre-cleared with Dynabeads M-280 Streptavidin (Invitrogen, Carlsbad, CA, USA). […] The complexes were harvested and washed with PBS. The collected beads were mixed with SDS loading buffer for further analysis.
as §1

[6] = system: PIK3CG knock-out Raji cells; experiment: Western blot of PI3K/AKT associated proteins in knock-out cells; assay type: cell-based, human; conditions: 100 nM, 72 h
Protocol: as §1
Oligos were obtained from Integrated DNA Technologies (IDT; Coralville, IA, USA) and cloned into the lentiviral vector lentiCRISPR v2 (Addgene #52961)[66]. Lentivirus production and transduction have been described previously. Here, Raji cells were transduced with a lentivirus harboring lentiCRISPR v2 vector or a construct containing the guide sequence ([…]) against PIK3CG gene. At 48 h post-transduction, cells were selected with puromycin and harvested to determine PIK3CG expression with western blot.

[7] = system: hematologic malignancies derived cell lines; experiment: Cell viability assay, panel of hematologic malignancy derived cell lines; assay type: cell-based, human; conditions: 100 nM, 72 h, lymphoma, leukemia and multiple myeloma cell lines (13 cell lines for analogs)
Procedure, shortened: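 Cells seeded at 5000 per well, next day treated once with brusatol or analogues without media change. Viability read as CellTiter-Glo luminescence after 10 min at room temperature. Two independent experiments in duplicate.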

Brusatol
protein expression of AKT1, GSK3, and mTOR (Raji cells [1]; Raji, 0, 50 nM, 100 nM, 0, 12 h, 24 h): substantially reduced
levels of AKT1 and GSK3 proteins (Raji cells [1]; Raji, Fig. 2h): decreased
tumor size (Fig 5d&5e), individual mice (MOLM14 xenografts; 0d): 79.6409 and 170.904 and 81.1118 and 93.0315 and 105.314 and 98.3496
tumor size (Fig 5d&5e), individual mice (MOLM14 xenografts; 2d): 114.921 and 89.4339 and 85.1926 and 118.807 and 122.531 and 72.1684
tumor size (Fig 5d&5e), individual mice (MOLM14 xenografts; 4d): 71.6608 and 87.7482 and 91.4458 and 96.2719 and 66.2604 and 63.9219
tumor size (Fig 5d&5e), individual mice (MOLM14 xenografts; 6d): 86.9292 and 188.062 and 142.989 and 148.569 and 65.5816 and 390.002
tumor size (Fig 5d&5e), individual mice (MOLM14 xenografts; 8d): 191.246 and 199.336 and 280.113 and 250.93 and 138.38 and 152.733
tumor size (Fig 5d&5e), individual mice (MOLM14 xenografts; 10d): 255.462 and 401.539 and 386.529 and 187.744 and 278.266
tumor size (Fig 5d&5e), individual mice (MOLM14 xenografts; 12d): 394.032 and 649.634 and 755.109 and 281.476 and 493.005
Sub-G1 population (HL-60 cells): 7.63%
Sub-G1 population (SU-DHL-4 cells [2]): 67.9%
Sub-G1 population (K562 cells): 3.19%
Sub-G1 population (Raji cells [3]): 68.4%
Cell viability (luminescence) (LCL1 cells; LCL1, cell number 0, 100 nM): 0.8054 and 1.195
Cell viability (luminescence) (LCL1 cells; LCL1, cell number 625, 100 nM): 1.142 and 1.405
Cell viability (luminescence) (LCL1 cells; LCL1, cell number 1250, 100 nM): 2.424 and 2.078
Cell viability (luminescence) (LCL1 cells; LCL1, cell number 2500, 100 nM): 3.232 and 2.818
Cell viability (luminescence) (LCL1 cells; LCL1, cell number 5000, 100 nM): 3.613 and 2.736
Cell viability (luminescence) (LCL1 cells; LCL1, cell number 10000, 100 nM): 4.594 and 3.987
inhibition of viability (cells inhibited) (SU-DHL-4 cells [4]): more than 80%
inhibition of viability (cells inhibited) (Raji cells [5]; 100 nM, 48 h post-treatment): more than 80%
Cell viability (luminescence) (Raji cells [5]; cell number 0, 100 nM): 0.9927 and 1.007
Cell viability (luminescence) (Raji cells [5]; cell number 625, 100 nM): 3.94 and 4.0527
Cell viability (luminescence) (Raji cells [5]; cell number 1250, 100 nM): 7.303 and 7.093
Cell viability (luminescence) (Raji cells [5]; cell number 2500, 100 nM): 8.911 and 8.321
Cell viability (luminescence) (Raji cells [5]; cell number 5000, 100 nM): 13.6562 and 12.7698
Cell viability (luminescence) (Raji cells [5]; cell number 10000, 100 nM): 11.8436 and 13.905
binding of 51048 with PI3Kγ in the presence of competitor (PI3Kγ): reduced
AKT1 level [6]: no obvious decrease
inhibition of cell viability in panel of cell lines [7]: broad and potent inhibitory effects
